Results: patent US4728638A, “Somatostatine derivatives” (Sandoz Ltd., priority 1985, dated 1988)

System: GH-secretion
Assay: GH-secretion inhibiting test: depression of serum GH-levels in the rat (radio-immuno-assay)
Assay type: in vivo
Conditions: male rats, s.c.
Procedure: This test is carried out employing male rats. The test-substance is administered at varying, logarithmically staggered doses employing at least 5 rats per dose. 1, 6 and 18 hours after the administration of the test substance blood is taken. The determination of the serum GH-level is effected by radio-immuno-assay. The compounds of formula I are active in this test when administered at a dosage in the range of from 0.01 to 50 μg/kg s.c.

## C[C@H](N)C(=O)NCC(=O)N[C@H]1CSSC[C@@H](C(=O)O)NC(=O)[C@H](CO)NC(=O)[C@H]([C@@H](C)O)NC(=O)[C@H](Cc2ccccc2)NC(=O)[C@H]([C@@H](C)O)NC(=O)[C@H](CCCCN)NC(=O)[C@H](Cc2c[nH]c3ccccc23)NC(=O)[C@H](Cc2ccccc2)NC(=O)[C@H](Cc2ccccc2)NC(=O)[C@H](CC(N)=O)NC(=O)[C@H](CCCCN)NC1=O [natural somatostatine, somatostatine]
Blood taken 1 hour after administration
  ID50 in the GH-secretion inhibiting test after 1 hour: 0.95 mg/kg
Blood taken 6 hours after administration
  ID50 in the GH-secretion inhibiting test after 6 hours: extremely high and therefore not determinable
